target: Beta-lactamase (Pseudomonas aeruginosa, UniProt Q79MP6); assay: inhibition of IMP-1 beta-lactamase activity – biochemical, epi-absorbance, selectivity assay for VIM-2 inhibitor project, dose response (AID 1920)
Sequence (Q79MP6 whole entry): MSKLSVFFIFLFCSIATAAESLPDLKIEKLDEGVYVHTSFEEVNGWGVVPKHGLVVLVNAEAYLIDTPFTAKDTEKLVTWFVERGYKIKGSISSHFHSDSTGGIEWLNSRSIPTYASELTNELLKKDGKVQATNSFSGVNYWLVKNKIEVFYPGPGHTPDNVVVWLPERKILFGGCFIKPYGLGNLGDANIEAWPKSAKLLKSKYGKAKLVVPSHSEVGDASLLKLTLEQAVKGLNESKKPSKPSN

SMILES	IC50 [µM]
COc1cc(OC)c(OC)cc1C=NNC(=O)Cc1c(C)[nH][nH]c1=O [MLS000555854]	> 59.6
O=C1C(=O)N(Cc2cccnc2)C(c2ccccn2)C1C(=O)c1ccccc1 (configuration not stated) [(4Z)-4-[hydroxy(phenyl)methylene]-5-(2-pyridyl)-1-(3-pyridylmethyl)pyrrolidine-2,3-quinone]	> 59.6
COc1ccc(C(=O)C2C(=O)C(=O)N(Cc3ccco3)C2c2cc(OC)ccc2OC)cc1 (configuration not stated) [(4E)-5-(2,5-dimethoxyphenyl)-1-(2-furanylmethyl)-4-[hydroxy-(4-methoxyphenyl)methylidene]pyrrolidine-2,3-dione]	> 59.6
COc1ccc(OC)c(C=NNC(=O)Cc2c(C)[nH][nH]c2=O)c1 [SMR000147372]	> 59.6
O=C1C(=O)N(Cc2cccnc2)C(c2ccccn2)C1C(=O)c1ccc(F)cc1 (configuration not stated) [(4Z)-4-[(4-fluorophenyl)-hydroxy-methylene]-5-(2-pyridyl)-1-(3-pyridylmethyl)pyrrolidine-2,3-quinone]	> 59.6
COc1ccc(OC)c(C2C(C(=O)c3ccco3)C(=O)C(=O)N2Cc2cccnc2)c1 (configuration not stated) [2-(2,5-dimethoxyphenyl)-3-(furan-2-carbonyl)-4-hydroxy-1-(pyridin-3-ylmethyl)-2H-pyrrol-5-one]	> 59.6
O=C1C(=O)N(Cc2cccnc2)C(c2ccccn2)C1C(=O)c1cccs1 (configuration not stated) [3-hydroxy-5-(2-pyridinyl)-1-(3-pyridinylmethyl)-4-(2-thienylcarbonyl)-1,5-dihydro-2H-pyrrol-2-one]	> 59.6

— BindingDB's records for doi:10.7270/Q2SF2TM0 (The Scripps Research Institute Molecular Screening Center, 2009)
